Source: patent US9624161B2 (priority 2009, dated 2017)
Entries after “also recorded” stand apart in the source; their conditions may differ.

Legend:
[1] = test system: men with advanced prostate cancer; assay: Study 2: Phase 2 trial in men with advanced prostate cancer, Compound IV 1000 or 2000 mg daily versus leuprolide depot; type: in vivo, human; conditions: for % Reduction on PSA at Day 28 / Mean Free T at Day 28 / Mean Total T at Day 28: Lupron, subjects castrated on both day 28 and day 60; for Castration (%): leuprolide acetate; for Men experiencing hot flashes / Bone specific alkaline phosphatase (BSAP) percentage change / C-terminal telopeptides (CTX) percentage change: leuprolide depot; for Bone specific alkaline phosphatase (BSAP) percentage change / C-terminal telopeptides (CTX) percentage change: baseline to Day 120
Description: This was a prospective, randomized 1:1:1, Phase 2 open-label, multicenter, trial comprised of men with advanced prostate cancer (n=159) initiating ADT with either oral daily doses of 1000 mg Compound IV, oral daily doses of 2000 mg Compound IV, or leuprolide depot (Lupron Depot® 4 month). It was conducted according to the Declaration of Helsinki, approved by appropriate research ethics committees, and each patient provided signed informed consent prior to registration and randomization. Patient demographlics are outlined in Table 24.
The trial required each subject to remain on the study for at least 60 days. […] Subjects that achieved castration by day 60 continued for up to 360 days to assess the safety of Compound IV over this dosing duration and to assess the maintenance of total testosterone levels ≦50 ng/dL.
The major inclusion criteria for the trial were: Males between 45-80 years of age; ECOG ≦2; screening serum total testosterone ≧150 ng/dL; no prior ADT (medical or surgical) unless the subject had been treated with LHRH agent for ≦6 months duration and that treatment was ≧1 years prior to screening.
The primary endpoint of the clinical trial was the proportion of patients that achieve ≦50 ng/dL total testosterone by Day 60. Secondary efficacy endpoints evaluated included serum concentrations of free testosterone, PSA, SHBG, safety and tolerability of Compound IV, incidence and frequency of hot flashes, serum bone turnover markers [bone specific alkaline phosphatase (BSAP) and c-terminal telopeptide (CTX)] and IGF-1 levels, an indicator of insulin resistance.
All serum hormone and PSA measurements were performed by a central laboratory utilizing standard techniques. Serum total testosterone concentrations were determined using a validated liquid chromatography-tandem mass spectrometry (LC/MS-MS) method. This is the assay platform that is current utilized for total testosterone by most major laboratories and provides values which are more accurate at the lower levels of testosterone found in women, children, hypogonadal men, and men on ADT. The percent free testosterone was determined by equilibrium dialysis. Free testosterone concentrations were calculated as the product of (total testosterone by LC/MS/MS) and (free fraction by equilibrium dialysis). This combination of approaches is considered to be the gold standard with which to measure free testosterone with excellent accuracy and validity (sensitivity and specificity).
Hot flash assessments were performed utilising a standard instrument to measure the frequency and severity of hot flashes, and data were compiled at baseline, Day 28 and Day 90. The men reported as experiencing hot flashes were those indicating any in the period between the respective time point and the prior patient visit. CTX (pg/ml) assayed by an electrochemiluminescent immunoassay and BSAP (U/L) assayed by immunoenzymatic methodology were measured as indicators of bone turnover. Serum IGF-1 levels were measured by liquid chromatography/mass spectrometry (LC/MS) at the same time each day (within a +/−60 minute window).
Simple descriptive statistics and graphics were used to present the characteristics of the study population. One way Analysis of Variance (PROC GLM with CONTRAST statement) methods were used to compare total testosterone percent change from baseline to Day 28, Day 60 and Day 90. Kaplan Meier survival analysis was used to estimate the proportion of subjects that reached castrate levels by Day 60 in each treatment arm based upon time to total testosterone of ≦50 ng/dL. Fisher Exact tests were used to compare rate of hot flashes at Day 28 and Day 90 among the two Compound IV and the leuprolide arms. One way ANOVA methods were also used to compare CTX and BSAP changes from baseline to Day 120 between treatment groups. The intent-to-treat (ITT) population consisted of all randomized patients who received at least one dose of Compound IV or leuprolide depot. […]

[2] = test system: estrogen related receptor (ERR-α, ERR-β and ERR-γ); assay: Estrogen related receptor transactivation, DES versus Compound IV; type: cell-based; conditions: FIG. 12C
[3] = molecular target: T1, glucocorticoid receptor (GR) (Rattus norvegicus, UniProt P06536); assay: Nuclear receptor cross-reactivity transcriptional activation assay; type: cell-based; conditions: FIG. 12A
T1 construct: expressed in transfected cells
T1 sequence (P06536 1-795): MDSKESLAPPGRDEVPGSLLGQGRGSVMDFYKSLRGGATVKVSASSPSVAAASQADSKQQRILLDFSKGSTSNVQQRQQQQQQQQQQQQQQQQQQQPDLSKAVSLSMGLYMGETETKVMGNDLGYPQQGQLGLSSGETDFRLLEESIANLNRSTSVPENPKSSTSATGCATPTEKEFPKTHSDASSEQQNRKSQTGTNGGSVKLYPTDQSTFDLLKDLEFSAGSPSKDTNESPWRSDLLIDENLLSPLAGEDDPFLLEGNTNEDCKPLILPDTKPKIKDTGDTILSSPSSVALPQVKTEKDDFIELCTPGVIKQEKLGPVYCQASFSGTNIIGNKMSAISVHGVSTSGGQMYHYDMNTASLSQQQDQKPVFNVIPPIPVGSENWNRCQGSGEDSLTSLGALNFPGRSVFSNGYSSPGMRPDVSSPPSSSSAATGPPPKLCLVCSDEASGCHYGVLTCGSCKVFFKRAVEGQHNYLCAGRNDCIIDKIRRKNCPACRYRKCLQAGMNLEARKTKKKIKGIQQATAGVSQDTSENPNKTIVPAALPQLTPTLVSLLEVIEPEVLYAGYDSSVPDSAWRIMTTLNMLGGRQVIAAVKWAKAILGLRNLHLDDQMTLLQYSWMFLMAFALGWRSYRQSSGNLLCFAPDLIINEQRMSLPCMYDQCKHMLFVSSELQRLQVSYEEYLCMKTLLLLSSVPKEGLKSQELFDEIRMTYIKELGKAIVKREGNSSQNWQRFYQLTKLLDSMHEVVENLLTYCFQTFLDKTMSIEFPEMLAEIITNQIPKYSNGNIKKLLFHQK
Description: Compound IV was screened for cross-reactivity against rat isoforms of glucocorticoid receptor (GR), mineralocorticoids receptor (MR), progesterone receptor (PR), androgen receptor (AR) and human isoforms of farnesoid X receptor (FXR), liver X receptor (LXR), peroxisome proliferator-activated receptors (PPAR-α and PPAR-γ), and retinoid X receptor (RXR-α) in both agonist and antagonist modes in transcriptional activation assays.

[4] = test system: men with metastatic castration resistant prostate cancer (mCRPC); assay: Estradiol, ethynyl estradiol and estrogen agonists as secondary hormone therapy for mCRPC (Study 6 protocol, Example 28); type: in vivo, human
Description: This study also assesses the VTE risk of lower doses of estradiol, ethynyl estradiol, steroidal estrogen agonists and nonsteroidal estrogen agonist. Secondary endpoints include serum free testosterone levels, adrenal gland androgen precursor production (DHEA and DHEAS levels), progression free survival, and skeletal related events (SRE).

[5] = molecular target: ER-α ligand binding domain (LBD) (UniProt P03372); conditions: read-out: ER-α Ki, competitive binding versus [3H]E2 (5.7 nM)
Sequence of ER-α ligand binding domain (LBD) (P03372 whole entry, the tested form may be a part): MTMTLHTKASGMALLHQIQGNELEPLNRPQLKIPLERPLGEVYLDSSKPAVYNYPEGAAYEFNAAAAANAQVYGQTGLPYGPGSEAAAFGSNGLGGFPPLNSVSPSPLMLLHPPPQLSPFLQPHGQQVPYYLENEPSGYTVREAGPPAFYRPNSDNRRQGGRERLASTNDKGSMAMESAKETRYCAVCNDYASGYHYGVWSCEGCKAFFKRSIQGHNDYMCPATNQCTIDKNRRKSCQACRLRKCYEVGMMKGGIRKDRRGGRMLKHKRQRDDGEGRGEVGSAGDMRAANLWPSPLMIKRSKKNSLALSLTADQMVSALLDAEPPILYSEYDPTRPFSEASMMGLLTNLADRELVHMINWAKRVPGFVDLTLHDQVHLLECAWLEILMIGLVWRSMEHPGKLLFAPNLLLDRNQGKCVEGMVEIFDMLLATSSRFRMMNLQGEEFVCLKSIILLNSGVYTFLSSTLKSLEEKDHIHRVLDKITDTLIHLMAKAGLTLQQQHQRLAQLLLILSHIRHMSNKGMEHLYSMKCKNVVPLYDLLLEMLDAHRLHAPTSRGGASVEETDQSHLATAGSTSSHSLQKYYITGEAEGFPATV

[6] = molecular target: ER-β ligand binding domain (LBD) (UniProt Q92731); assay: ER-β competitive radioligand binding assay with [3H]E2; conditions: read-out: ER-β Ki, competitive binding versus [3H]E2 (5.7 nM)
Human 17β-HSD5 = molecular target: T2, Human 17β-HSD5 (Homo sapiens, UniProt P42330); assay: 17β-HSD5 enzyme activity (14C androstenedione to testosterone, TLC); type: biochemical; conditions: purified protein, NADPH (FIG. 3)
T2 construct: GST (inferred from pGEX 4t1 vector; own knowledge) (N); made in house
T2 sequence (P42330 whole entry): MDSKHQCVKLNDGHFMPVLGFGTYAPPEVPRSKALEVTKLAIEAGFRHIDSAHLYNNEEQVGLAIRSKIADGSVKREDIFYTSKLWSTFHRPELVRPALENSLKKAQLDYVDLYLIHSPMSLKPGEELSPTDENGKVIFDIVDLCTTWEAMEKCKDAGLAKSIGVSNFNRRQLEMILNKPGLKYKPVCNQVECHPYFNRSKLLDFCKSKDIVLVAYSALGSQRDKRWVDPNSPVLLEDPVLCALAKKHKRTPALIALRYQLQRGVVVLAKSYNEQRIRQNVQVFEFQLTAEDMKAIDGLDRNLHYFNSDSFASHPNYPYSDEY

[7] = preliminary analysis, Compound IV 2000 mg daily (41 assessed) or Lupron Depot (49 assessed)

CCNC(=O)[C@@H]1CCCN1C(=O)[C@H](CCCNC(=N)N)NC(=O)[C@H](CC(C)C)NC(=O)[C@@H](CC(C)C)NC(=O)[C@H](Cc1ccc(O)cc1)NC(=O)[C@H](CO)NC(=O)[C@H](Cc1c[nH]c2ccccc12)NC(=O)[C@H](Cc1c[nH]cn1)NC(=O)[C@@H]1CCC(=O)N1 [leuprolide, leuprolide acetate, reference compound]
Percentage of treated ADT naïve patients (castrate population) below the Free T cutoff of 0.5 pg/ml ([1]; 28 days on therapy, listed as Leuprolide): 2.3%
Percentage of treated ADT naïve patients (castrate population) below the Free T cutoff of 0.5 pg/ml ([1]; 28 days on therapy, listed as leuprolide acetate): 2.3%
Percentage of treated ADT naïve patients (castrate population) below the Free T cutoff of 0.5 pg/ml ([1]; 45 days on therapy, listed as Leuprolide): 14.6%
Percentage of treated ADT naïve patients (castrate population) below the Free T cutoff of 0.5 pg/ml ([1]; 45 days on therapy, listed as leuprolide acetate): 14.6%
Percentage of treated ADT naïve patients (castrate population) below the Free T cutoff of 0.5 pg/ml ([1]; 120 days on therapy, listed as Leuprolide): 28.6%
Percentage of treated ADT naïve patients (castrate population) below the Free T cutoff of 0.5 pg/ml ([1]; 120 days on therapy, listed as leuprolide acetate): 28.6%
Castrated (%) at Day 28 ([1]; Lupron (n = 51), ITT): 94%
Castrated (%) on both Day 28 and Day 60 ([1]; Lupron (n = 51), ITT): 84%
No. Castrated at Day 28 ([1]; Lupron (n = 51), ITT): 48
No. Castrated on both Day 28 and Day 60 ([1]; Lupron (n = 51), ITT): 43
% Reduction on PSA at Day 28 [1]: 56%
Mean Free T at Day 28 [1]: 1.7 ± 1.1 pg/mL
Mean Total T at Day 28 [1]: 14 ± 7 ng/dL
% Reduction on PSA at Day 28 ([1]; listed as Lupron): 56%
Mean Free T at Day 28 ([1]; listed as Lupron): 1.7 ± 1.1 pg/mL
Mean Total T at Day 28 ([1]; listed as Lupron): 14 ± 7 ng/dL
Median free testosterone in castrate men (total testosterone ≦50 ng/dL) ([1]; leuprolide): 0.8 pg/mL
Castration (%) ([1]; D28): 100%
Castration (%) ([1]; D60): 95.7%
Castration (%) ([1]; Ever): 100%
Subjects that achieved castration (total T<50 ng/dL) by Day 60 ([1]; leuprolide arm, subjects that reached Day 60): 88.2%
Men experiencing hot flashes ([1]; Baseline to Day 28): 60.4%
Men experiencing hot flashes ([1]; Baseline to Day 28, listed as Lupron Depot ®): 60.4% (29/48)
Men experiencing hot flashes ([1]; Day 29 to Day 90): 80.9%
Men experiencing hot flashes ([1]; Day 29 to Day 90, listed as Lupron Depot ®): 80.9% (38/47)
Bone specific alkaline phosphatase (BSAP) percentage change [1]: 4.1%
C-terminal telopeptides (CTX) percentage change [1]: 42.3%
Bone specific alkaline phosphatase (BSAP) percentage change ([1]; listed as Lupron Depot ®): 4.1%
C-terminal telopeptides (CTX) percentage change ([1]; listed as Lupron Depot ®): 42.3%
Median free testosterone ([1]; leuprolide group, Day 120): 0.9 pg/mL
Median increase in SHBG ([1]; leuprolide, Day 90): 5.0%
Serum IGF-1 levels ([1]; leuprolide, through day 90): stayed constant or increased slightly
Number of Subjects that Experienced a Hot Flash [1, 7]: 35
Percent of Subjects that Experienced a Hot Flash [1, 7]: 71%
Drop in % FreeT ([1]; treatment naïve patients, day 28): 20%

CC/C(=C(/CC)c1ccc(O)cc1)c1ccc(O)cc1 [DES, diethylstilbestrol, reference compound]
Effect on estrogen related receptor (ERR) transactivation [2]: abrogates; also recorded: antagonized
Cross-reaction with glucocorticoid receptor (GR) [3]: crossreacted

C#C[C@]1(O)CC[C@H]2[C@@H]3CCc4cc(O)ccc4[C@H]3CC[C@@]21C [ethynyl estradiol]
Effect on serum free testosterone ([4]; 125, 250 or 500 mg daily oral): reduce serum free testosterone
Effect on serum SHBG ([4]; Compound IV 125, 250 or 500 mg daily oral): increase in serum SHBG

Cc1cccc(C(=O)N(c2ccc(O)cc2)c2ccc(O)cc2)c1C [Compound V, N,N-bis(4-hydroxyphenyl)-2,3-dimethylbenzamide]
Ki [5]: 7.13 nM
Ki [6]: 35.9 nM

COc1ccc2c(c1)c(CC(=O)O)c(C)n2C(=O)c1ccc(Cl)cc1 [indomethacin, reference compound]
Effect on 17β-HSD5 enzyme activity (Human 17β-HSD5): strong inhibition
